The text below walks through data of US8497278B2, “Imidazo[1,2-a]pyridine compounds” (priority 2008, dated 2013).

Some results are limits rather than exact numbers.

The target in experiment [1] is T1, α2 subtype containing GABA-A receptors (Homo sapiens, UniProt P18507+P47869).
T1 construct: expressed in transfected cells; host or cells: Xenopus laevis oocytes, cRNA injected
As to the kind of experiment: Two-electrode voltage clamp electrophysiology in Xenopus oocytes, potentiation of GABA EC20 response, α2. The experiment is classed as cell-based. The note with it: 100 nM compound; for activation at 0.1 µM: read-out: Percentage of potentiation alpha2. The method, then: (§1) Electrophysiology protocol: Oocytes were prepared from adult female Xenopus laevis frogs. cRNA encoding human α1, α2, α3, α5, β3 and γ2L GABAA receptor subunits was injected into the cytoplasm of stage 5 or 6 oocytes using the Robocyte Robot (Multi Channel Systems, Reutlingen, Germany). Two-electrode voltage clamp recordings were made in 96-well plates using the Robocyte Robot. Oocytes were impaled using recording heads with two glass electrodes containing 1.5 M potassium acetate and 0.5 M KCl and held at a membrane potential of −80 mV. Oocytes were continually perfused with a ND96 solution (96 mM NaCl, 2 mM KCl, 0.1 mM CaCl2, and 5 mM HEPES, pH 7.5) using a Gilson 222 XL Liquid Handler and Gilson Minipuls 3 Peristaltic Pump (Gilson Medical Electronics, Middleton, Wis., USA). The protocol consisted of three 20-s applications of GABA that gave a 20% of the maximum response (EC20: 60 μM) to allow for headroom to determine a baseline GABA response. To assess the potentiation, oocytes were first exposed to a single 1 μM chlordiazepoxide (CDP) as a potentiation standard. Oocytes with insufficient expression levels (currents below threshold) or insufficient γ2L subunit incorporation (judged by rapid desensitization upon GABA application, or by insufficient potentiation by CDP) were not included in analysis. Following this control application, a given oocyte was exposed to test compounds at 100 nM concentrations. Only one concentration of one compound was tested per oocyte. […] One skilled in the art will recognize that subtypes contribute to the effects of GABA-A modulators. Such that compounds favoring different subtypes can have different therapeutic effects. The magnitude of modulation, for example, partial modulators can influence the effects in vivo. “++” indicates a greater modulation that “+” so that at any given subtype “++” inducates a greater amount of modulation for that subtype. In some embodiments, modulation favoring alpha 1 relative to alpha2 and/or alpha 3 can have sedative hypnotic effects. In other embodiments, compounds with reduced selectivity of alpha 1 can express anxiolytic effects with less sedation. Compounds with selectivity for alpha 5 can have memory/cognition enhancing effects.
(Two-electrode voltage clamp is typically applied to oocytes expressing channels or transporters.)

Experiment [2] addresses T2, α1 subtype containing GABA-A receptors (Homo sapiens, UniProt P14867+P18507).
T2 construct: expressed in transfected cells; host or cells: Xenopus laevis oocytes, cRNA injected
The experiment is described as follows: Two-electrode voltage clamp electrophysiology in Xenopus oocytes, potentiation of GABA EC20 response, α1. It is filed as cell-based. To be noted: 100 nM compound; for activation at 0.1 µM: read-out: Percentage of potentiation alpha1. The method, then: as §1

Experiment [3] concerns central benzodiazepine receptors. The experiment is described as follows: Central benzodiazepine receptor binding (test of Speth et al.). To be noted: 1000 nM of the compound. Put shortly: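 Radioligand binding by the Speth et al. method. Specific binding is total minus nonspecific binding, the latter measured with excess unlabelled ligand. Compounds screened at 1.0E-09, 1.0E-07 and 1.0E-05 M in single determination; values given as percent inhibition at 1000 nM compound.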

T2 sequence (P14867 28-456): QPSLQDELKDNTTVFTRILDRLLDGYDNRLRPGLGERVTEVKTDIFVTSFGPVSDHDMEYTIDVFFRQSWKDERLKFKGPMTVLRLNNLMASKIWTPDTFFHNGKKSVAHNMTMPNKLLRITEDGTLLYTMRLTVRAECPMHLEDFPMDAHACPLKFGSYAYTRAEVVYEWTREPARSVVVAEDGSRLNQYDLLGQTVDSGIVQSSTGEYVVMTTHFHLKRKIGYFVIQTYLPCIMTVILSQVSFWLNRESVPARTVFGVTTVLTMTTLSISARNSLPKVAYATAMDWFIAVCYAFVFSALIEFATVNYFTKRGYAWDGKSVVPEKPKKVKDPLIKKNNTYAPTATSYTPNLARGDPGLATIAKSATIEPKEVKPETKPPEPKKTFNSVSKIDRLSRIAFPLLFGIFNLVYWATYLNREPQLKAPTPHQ
T2 sequence (P28472 26-473 partner): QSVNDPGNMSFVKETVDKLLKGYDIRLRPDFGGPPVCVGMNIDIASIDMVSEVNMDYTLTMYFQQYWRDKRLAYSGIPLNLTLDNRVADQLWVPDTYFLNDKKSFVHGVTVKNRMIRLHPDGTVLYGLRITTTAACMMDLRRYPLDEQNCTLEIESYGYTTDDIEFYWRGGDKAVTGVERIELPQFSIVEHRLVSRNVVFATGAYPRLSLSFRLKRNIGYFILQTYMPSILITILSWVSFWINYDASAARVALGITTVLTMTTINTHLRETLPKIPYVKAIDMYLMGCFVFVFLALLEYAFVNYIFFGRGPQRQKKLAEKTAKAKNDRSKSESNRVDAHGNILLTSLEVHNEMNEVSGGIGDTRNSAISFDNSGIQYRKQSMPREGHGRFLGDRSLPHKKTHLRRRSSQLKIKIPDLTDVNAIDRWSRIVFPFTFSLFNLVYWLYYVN
T2 sequence (P18507 40-475): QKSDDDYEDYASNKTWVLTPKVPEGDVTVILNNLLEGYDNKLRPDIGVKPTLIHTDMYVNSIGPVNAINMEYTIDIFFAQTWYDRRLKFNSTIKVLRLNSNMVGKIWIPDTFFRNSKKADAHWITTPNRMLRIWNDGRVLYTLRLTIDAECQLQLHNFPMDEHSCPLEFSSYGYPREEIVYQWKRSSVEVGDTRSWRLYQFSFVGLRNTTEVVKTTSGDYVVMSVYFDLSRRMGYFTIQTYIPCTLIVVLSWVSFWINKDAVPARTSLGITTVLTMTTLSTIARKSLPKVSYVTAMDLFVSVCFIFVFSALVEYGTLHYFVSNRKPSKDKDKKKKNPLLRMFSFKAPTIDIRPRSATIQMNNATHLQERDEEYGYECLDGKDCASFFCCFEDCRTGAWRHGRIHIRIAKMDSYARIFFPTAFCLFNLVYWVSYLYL
T1 sequence (P47869 29-451): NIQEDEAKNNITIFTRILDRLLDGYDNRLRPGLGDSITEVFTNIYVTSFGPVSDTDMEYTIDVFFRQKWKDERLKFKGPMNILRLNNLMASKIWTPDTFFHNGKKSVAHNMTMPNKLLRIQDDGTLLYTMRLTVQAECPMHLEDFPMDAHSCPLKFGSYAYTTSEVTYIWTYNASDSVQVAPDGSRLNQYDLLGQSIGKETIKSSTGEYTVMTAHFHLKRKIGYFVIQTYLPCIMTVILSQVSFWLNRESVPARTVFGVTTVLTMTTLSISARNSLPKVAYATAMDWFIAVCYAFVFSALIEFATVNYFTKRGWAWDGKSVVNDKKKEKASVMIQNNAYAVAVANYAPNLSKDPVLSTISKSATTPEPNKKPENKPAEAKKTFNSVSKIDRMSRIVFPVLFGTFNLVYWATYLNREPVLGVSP
T1 sequence (P28472 26-473 partner): as the sequence (P28472 26-473 partner) above
T1 sequence (P18507 40-475): as the sequence (P18507 40-475) above

Consider `Cc1ccc(-c2nc3ccc(C)cn3c2CNc2nccnn2)cc1` [Compound 145, (6-Methyl-2-p-tolyl-imidazo[1,2-a]pyridin-3-ylmethyl)-[1,2,4]triazin-3-yl-amine], for which the results for the activation at 0.1 µM in experiment [1] and in experiment [2] were 10 to 50% and at least 50%, respectively.
The like results for `CNC(=O)c1nc(Cc2c(-c3ccc(F)cc3)nc3ccc(F)cn23)no1` [Compound 221, 3-((6-fluoro-2-(4-fluorophenyl)imidazo[1,2-a]pyridin-3-yl)methyl)-N-methyl-1,2,4-oxadiazole-5-carboxamide] were, in that order, 10 to 50% and -10 to 10%.
`CONC(=O)c1nc(Cc2c(-c3ccc(F)cc3)nc3ccc(F)cn23)no1` [Compound 224, 3-((2-(4-fluorophenyl)-6-fluoroimidazo[1,2-a]pyridin-3-yl)methyl)-N-methyoxy-1,2,4-oxadiazole-5-carboxamide]: the “Percentage of potentiation alpha2” value in experiment [1] is “+ (percentage of potentiation is greater than or equal to 10% but less than 50% in the presence of 100 nM of the compound)”. Besides, the “Percentage of potentiation alpha1” value in experiment [2] was 0 (percentage of potentiation is between about 10% to about −10%).
Regarding `COC(=O)c1ncn(Cc2c(-c3ccc(Cl)cc3)nc3ccccn23)n1` [Compound 25, 1-[2-(4-Chloro-phenyl)-imidazo[1,2-a]pyridin-3-ylmethyl]-1H-[1,2,4]triazole-3-carboxylic acid methyl ester], the activation at 0.1 µM is at least 50% in experiment [1] and 10 to 50% in experiment [2].
For `O=C(NO)c1nc(Cc2c(-c3ccc(Cl)cc3)nc3ccc(F)cn23)no1` [Compound 222, 3-((2-(4-chlorophenyl)-6-fluoroimidazo[1,2-a]pyridin-3-yl)methyl)-N-hydroxy-1,2,4-oxadiazole-5-carboxamide] the same measures were at least 50% and -10 to 10%.
Turning to `Clc1ccc(-c2nc3ccccn3c2Cn2nnc3ccccc32)cc1` [Compound 42, 1-((2-(4-chlorophenyl)H-imidazo[1,2-a]pyridin-3-yl)methyl)-1H-benzo[d][1,2,3]triazole], in experiment [1], the “Percentage of potentiation alpha2” value is recorded as “+ (percentage of potentiation is greater than or equal to 10% but less than 50% in the presence of 100 nM of the compound)”. Moreover, the “Percentage of potentiation alpha1” value in experiment [2] is on record as “+ (percentage of potentiation is greater than or equal to 10% but less than 50% in the presence of 100 nM of the compound)”.
Consider `Cc1cc(Cl)nc(NCc2c(-c3ccc(F)cc3)nc3ccc(Cl)cn23)n1` [Compound 162, 4-chloro-N-((6-chloro-2-(4-fluorophenyl)imidazo[1,2-a]pyridin-3-yl)methyl)-6-methylpyrimidin-2-amine], for which, in experiment [3], the “% Inhibition at 1000 nM for CBZD” value is “++ (percentage of inhibition of central BZD site binding is greater than 80% in the presence of 1000 nM of the compound)”. Besides, the activation at 0.1 µM in experiment [2] was 10 to 50%.
As for `NC(=O)c1nc(Cc2c(-c3ccc(Cl)cc3)nc3ccc(F)cn23)no1` [Compound 217, 3-((2-(4-chlorophenyl)-6-fluoroimidazo[1,2-a]pyridin-3-yl)methyl)-1,2,4-oxadiazole-5-carboxamide], the activation at 0.1 µM in experiment [1] was at least 50%; in experiment [2], 10 to 50%.
On to `CN(C)c1ccn(Cc2c(-c3ccc(Cl)cc3)nc3ccccn23)c(=O)n1` [Compound 135, 1-((2-(4-chlorophenyl)imidazo[1,2-a]pyridin-3-yl)methyl)-4-(dimethylamino)pyrimidin-2(1H)-one], for which the activation at 0.1 µM in experiment [1] was at least 50%. Further, in experiment [3], the “% Inhibition at 1000 nM for CBZD” value is recorded as “++ (percentage of inhibition of central BZD site binding is greater than 80% in the presence of 1000 nM of the compound)”.
With `Cc1ccc(-c2nc3ccc(C)cn3c2CNc2nc(C)cc(Cl)n2)cc1` [Compound 147, 4-chloro-6-methyl-N-((6-methyl-2-p-tolylimidazo[1,2-a]pyridin-3-yl)methyl)pyrimidin-2-amine], in experiment [3], the “% Inhibition at 1000 nM for CBZD” value was “++ (percentage of inhibition of central BZD site binding is greater than 80% in the presence of 1000 nM of the compound)”. In experiment [2], the activation at 0.1 µM was at least 50%.
As to `Cc1ccnc(NCc2c(-c3ccc(Cl)cc3)nc3ccccn23)n1` [Compound 157, [2-(4-Chloro-phenyl)-imidazo[1,2-a]pyridin-3-ylmethyl]-(4-methyl-pyrimidin-2-yl)-amine], the “% Inhibition at 1000 nM for CBZD” value in experiment [3] is “++ (percentage of inhibition of central BZD site binding is greater than 80% in the presence of 1000 nM of the compound)”. In addition, the activation at 0.1 µM in experiment [2] lay within 10 to 50%.
For `CNC(=O)c1nc(Cc2c(-c3ccc(F)cc3)nc3ccc(Cl)cn23)no1` [Compound 218, 3-((2-(4-fluorophenyl)-6-chloroimidazo[1,2-a]pyridin-3-yl)methyl)-1,2,4-oxadiazole-5-N-methyl-carboxamide], the “Percentage of potentiation alpha2” value in experiment [1] is reported as “++ (percentage of potentiation is greater than or equal to 50% in the presence of 100 nM of the compound)”. The “Percentage of potentiation alpha1” value in experiment [2] is reported as “+ (percentage of potentiation is greater than or equal to 10% but less than 50% in the presence of 100 nM of the compound)”.
With `NNC(=O)c1nc(Cc2c(-c3ccc(Cl)cc3)nc3ccccn23)no1` [Compound 215, 3-((2-(4-chlorophenyl)imidazo[1,2-a]pyridin-3-yl)methyl)-1,2,4-oxadiazole-5-carbohydrazide], the activation at 0.1 µM in experiment [1] is 10 to 50%; in experiment [2], -10 to 10%.
For `CNC(=O)c1ncn(Cc2c(-c3ccc(Cl)cc3)nc3ccccn23)n1` [Compound 73, 1-((2-(4-chlorophenyl)imidazo[1,2-a]pyridin-3-yl)methyl)-N-methyl-1H-1,2,4-triazole-3-carboxamide] the same measures were 10 to 50% and 10 to 50%.
Consider `Clc1ccc(-c2nc3ccc(Cl)cn3c2Cc2cn[nH]n2)cc1` [Compound 227, 3-((2H-1,2,3-triazol-4-yl)methyl)-6-chloro-2-(4-chlorophenyl)imidazo[1,2-a]pyridine], for which the “% Inhibition at 1000 nM for CBZD” value in experiment [3] is “++ (percentage of inhibition of central BZD site binding is greater than 80% in the presence of 1000 nM of the compound)”. Also, the activation at 0.1 µM in experiment [2] is at least 50%.
For the molecule `Cc1ccc(-c2nc3ccc(C)cn3c2CNn2cnnc2)cc1` [Compound 152, (6-methyl-2-p-tolylH-imidazo[1,2-a]pyridin-3-yl)-N-(4H-1,2,4-triazol-4-yl)methanamine], the “% Inhibition at 1000 nM for CBZD” value in experiment [3] is recorded as “+ (percentage of inhibition of central BZD site binding is greater than 50% but less than 80% in the presence of 1000 nM of the compound)”.
For the molecule `CN(C)C(=O)c1ncn(Cc2c(-c3ccc(Cl)cc3)nc3ccccn23)n1` [Compound 75, 1-((2-(4-chlorophenyl)imidazo[1,2-a]pyridin-3-yl)methyl)-N,N-dimethyl-1H-1,2,4-triazole-3-carboxamide], the “% Inhibition at 1000 nM for CBZD” value in experiment [3] is listed as “++ (percentage of inhibition of central BZD site binding is greater than 80% in the presence of 1000 nM of the compound)”.
On the same count and under the same terms, next, `Cc1nc(Cc2c(-c3ccc(Cl)cc3)nc3ccccn23)no1` [Compound 202, 3-((2-(4-chlorophenyl)imidazo[1,2-a]pyridin-3-yl)methyl)-5-methyl-1,2,4-oxadiazole]: “++ (percentage of inhibition of central BZD site binding is greater than 80% in the presence of 1000 nM of the compound)”; `Fc1ccc2nc(-c3ccc(Cl)cc3)c(Cn3cncn3)n2c1` [Compound 55, 3-((1H-1,2,4-triazol-1-yl)methyl)-2-(4-chlorophenyl)-6-fluoroH-imidazo[1,2-a]pyridine]: “++ (percentage of inhibition of central BZD site binding is greater than 80% in the presence of 1000 nM of the compound)”; `CC(C)c1nnc(Cc2c(-c3ccc(Cl)cc3)nc3ccccn23)[nH]1` [Compound 231, 2-(4-chlorophenyl)-3-((5-isopropyl-4H-1,2,4-triazol-3-yl)methyl)imidazo[1,2-a]pyridine]: “++ (percentage of inhibition of central BZD site binding is greater than 80% in the presence of 1000 nM of the compound)”.
As for `Cc1cccn(Cc2c(-c3ccc(Cl)cc3)nc3ccc(Cl)cn23)c1=O` [Compound 109, 1-((6-chloro-2-(4-chlorophenyl)H-imidazo[1,2-a]pyridin-3-yl)methyl)-3-methylpyridin-2(1H)-one], the “% Inhibition at 1000 nM for CBZD” value in experiment [3] was “++ (percentage of inhibition of central BZD site binding is greater than 80% in the presence of 1000 nM of the compound)”.
